Test results from patent US9346761B2, “Arginine methyltransferase inhibitors and uses thereof” (Epizyme, Inc., priority 2013, dated 2016).
Like-named read-outs stand apart in the source and are kept apart here.

How the values were obtained:
Full-length human PRMT6 = target: T1, Full-length human PRMT6 (Homo sapiens, UniProt Q96LA8); assay: PRMT6 biochemical assay (3H-SAM Flashplate, peptide substrate)
T1 construct: Flag-PRMT6-His was eluted with 200 ug/ml FLAG peptide in the same buffer; made in house; host or cells: HEK 293F cells (BacMam virus, pFastBacMam)
How it was run: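 Flag-PRMT6-His from baculovirus-infected cells, preincubated with compound 30 min at room temperature, then SAM/3H-SAM and biotinylated H4 36-50 peptide added; 20 mM Bicine pH 7.6, TCEP, BSG, Tween 20. Quenched with cold SAM, captured on streptavidin Flashplates; % inhibition from SAH/DMSO controls, 3- or 4-parameter IC50 fit.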

[1] = test system: mono-methyl arginine in RKO cells; assay: RKO methylation assay, In Cell Western for mono-methyl arginine and DNA content; type: cell-based; settings: Homo sapiens
[2] = In Cell Western, RKO cells, 72 hours, percent activation of mono-methyl arginine signal, read-out: EC30

T1 sequence (Q96LA8 with tags, fused parts or gaps): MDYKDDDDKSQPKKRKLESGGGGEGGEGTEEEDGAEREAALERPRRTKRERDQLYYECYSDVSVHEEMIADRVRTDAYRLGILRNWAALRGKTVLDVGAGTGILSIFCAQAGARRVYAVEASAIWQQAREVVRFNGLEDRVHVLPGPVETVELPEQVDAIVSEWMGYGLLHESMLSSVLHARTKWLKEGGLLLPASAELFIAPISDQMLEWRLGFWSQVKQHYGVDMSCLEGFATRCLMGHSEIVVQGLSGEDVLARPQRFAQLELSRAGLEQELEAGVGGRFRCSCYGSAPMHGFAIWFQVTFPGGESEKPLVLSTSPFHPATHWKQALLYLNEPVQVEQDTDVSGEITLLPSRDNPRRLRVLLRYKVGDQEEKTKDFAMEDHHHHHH

Row | Compound | IC50 (Full-length human PRMT6) | EC30 [1, 2] | EC30 ([1]; RKO, 72 h)
1 | COc1ccc(Cl)cc1-c1n[nH]cc1CN(C)CCN [Compound 157] | 0.101 to 1 µM | > 12 µM | –
2 | Cc1cccc(-c2n[nH]cc2CN(C)CCN)c1 [Compound 131] | < 0.1 µM | < 3 µM | –
3 | CN(CCN)Cc1c[nH]nc1-c1cc(F)cc(F)c1 [Compound 111] | < 0.1 µM | > 12 µM | –
4 | CCNC(=O)c1ccc(-c2n[nH]cc2CN(C)CCN)cc1 [Compound 136] | < 0.1 µM | > 12 µM | –
5 | Cc1ccc(F)cc1-c1n[nH]cc1CN(C)CCN [Compound 159] | < 0.1 µM | 3.01 to 12 µM | –
6 | COc1ccc(-c2n[nH]cc2CN(C)CCN)cc1 [Compound 153] | < 0.1 µM | < 3 µM | –
7 | COCCOc1ccc(-c2n[nH]cc2CN(C)CCN)cc1 [Compound 167] | < 0.1 µM | < 3 µM | –
8 | CN(CCN)Cc1c[nH]nc1-c1ccc(C(F)(F)F)c(Cl)c1 [Compound 117] | < 0.1 µM | < 3 µM | –
9 | Cc1cc(Cl)ccc1-c1n[nH]cc1CN(C)CCN [Compound 133] | < 0.1 µM | < 3 µM | –
10 | CN(CCN)Cc1c[nH]nc1-c1cc(Cl)ccc1F [Compound 156] | < 0.1 µM | 3.01 to 12 µM | –
11 | CC(=O)c1cccc(-c2n[nH]cc2CN(C)CCN)c1 [Compound 112] | < 0.1 µM | > 12 µM | –
12 | COc1cc(Cl)cc(-c2n[nH]cc2CN(C)CCN)c1 [Compound 127] | < 0.1 µM | 3.01 to 12 µM | –
13 | CN(CCN)Cc1c[nH]nc1-c1ccc(C(F)(F)F)cc1F [Compound 148] | < 0.1 µM | 3.01 to 12 µM | –
14 | COc1ccc(F)cc1-c1n[nH]cc1CN(C)CCN [Compound 160] | 0.101 to 1 µM | > 12 µM | –
15 | Cc1cc(C#N)ccc1-c1n[nH]cc1CN(C)CCN [Compound 110] | < 0.1 µM | > 12 µM | –
16 | CCn1ncc(CN(C)CCNC)c1-c1ccc(F)cc1 [Compound 7] | < 0.1 µM | 3.01 to 12 µM | –
17 | COCCn1cc(CN(C)CCN)c(-c2ccc(F)cc2)n1 [Compound 5] | 0.101 to 1 µM | > 12 µM | –
18 | CN(CCN)Cc1c[nH]nc1-c1ccc(C2CCOCC2)cc1 [Compound 98] | < 0.1 µM | < 3 µM | –
19 | COc1ccc(-c2n[nH]cc2CN(C)CCN)cc1F [Compound 134] | < 0.1 µM | < 3 µM | –
20 | CN(CCN)Cc1c[nH]nc1-c1cccc(Cl)c1F [Compound 123] | < 0.1 µM | < 3 µM | –

Row | Compound | IC50 (Full-length human PRMT6) | EC30 [1, 2] | EC30 ([1]; RKO, 72 h)
21 | CN(CCN)Cc1c[nH]nc1-c1cc(C#N)ccc1Cl [Compound 147] | < 0.1 µM | > 12 µM | –
22 | Cc1[nH]nc(-c2ccc(F)cc2)c1CN(C)CCN [Compound 169] | < 0.1 µM | > 12 µM | –
23 | CC(C)Oc1ccc(-c2c[nH]nc2CN(C)CCN)cc1F [Compound 144] | < 0.1 µM | < 3 µM | –
24 | CC(C)c1ccc(-c2c[nH]nc2CN(C)CCN)cc1 [Compound 101] | 0.101 to 1 µM | – | 3.01 to 12 µM
25 | CN(CCN)Cc1c[nH]nc1-c1ccc(C2CC2)cc1 [Compound 116] | < 0.1 µM | < 3 µM | –
26 | CN(CCN)Cc1c[nH]nc1-c1cc(F)ccc1Cl [Compound 106] | < 0.1 µM | > 12 µM | –
27 | CCN(CC)C(=O)c1ccc(-c2n[nH]cc2CN(C)CCN)cc1 [Compound 143] | 0.101 to 1 µM | > 12 µM | –
28 | CN(CCN)Cc1c[nH]nc1-c1ccc(OCCN2CCOCC2)cc1 [Compound 172] | < 0.1 µM | > 12 µM | –
29 | Cc1ccc(-c2n[nH]cc2CN(C)CCN)cc1Cl [Compound 126] | < 0.1 µM | < 3 µM | –
30 | CN(CCN)Cc1c[nH]nc1-c1cccc(N(C)C)c1 [Compound 149] | < 0.1 µM | 3.01 to 12 µM | –
31 | CN(CCN)Cc1c[nH]nc1-c1ccccc1C#N [Compound 140] | 1.01 to 3 µM | > 12 µM | –
32 | CC(O)c1ccc(-c2n[nH]cc2CN(C)CCN)cc1 (stereo not drawn) [Compound 115] | < 0.1 µM | > 12 µM | –
33 | CN(CCN)Cc1c[nH]nc1-c1ccc(C(F)(F)F)cc1Cl [Compound 135] | < 0.1 µM | 3.01 to 12 µM | –
34 | CN(CCN)Cc1c[nH]nc1-c1ccc(OC2CC2)cc1 [Compound 114] | < 0.1 µM | < 3 µM | –
35 | Cc1ccc(-c2n[nH]cc2CN(C)CCN)cc1 [Compound 162] | < 0.1 µM | < 3 µM | –
36 | COCCn1ncc(CN(C)CCN)c1-c1ccc(F)cc1 [Compound 6] | 0.101 to 1 µM | > 12 µM | –
37 | CCOC(=O)c1cccc(-c2n[nH]cc2CN(C)CCN)c1 [Compound 150] | < 0.1 µM | 3.01 to 12 µM | –
38 | CN(CCN)Cc1n[nH]cc1-c1ccc(Cl)cc1 [Compound 102] | < 0.1 µM | < 3 µM | –
39 | COc1ccc(-c2n[nH]cc2CN(C)CCN)cc1Cl [Compound 125] | < 0.1 µM | – | < 3 µM
